System: Genes belonging to other category
Test: DNA chip mRNA expression in yeast, genes belonging to other category (Table 9)
Type: cell-based, Saccharomyces cerevisiae S288C
Method: Yeast (Saccharomyces cerevisiae S288C (α SUC2mal mel gap2 CUP1)) were incubated at 25° C. on YPD medium (yeast extract 1%, polypepton 2%, glucose 2%). One of toxic chemical substances was added to the cells at logarithmic growth phase, and the cells were further incubated for two hours. Cells were cultured without any chemical substance in the same condition, and were used as control. Concentrations of the chemical substances were defined to inhibit the growth of the yeast but not lead to death.
After completion of the incubation, the culture was centrifuged to collect the cells. To the cells, sodium acetate buffer (50 mM sodium acetate, 10 mM EDTA, 1% SDS) was added, and the mixture was shaken at 65° C. for five minutes, followed by returning to room temperature, and obtaining the supernatant, of which the procedures were repeated two times. To the supernatant, ½ amount of a solution of phenol/chloroform was added, and the mixture was centrifuged to give a supernatant, which was added with an equal amount of chloroform, and the mixture was centrifuged to give a supernatant. To the supernatant, an equal amount of isopropanol containing 0.3 M sodium acetate was added, and the mixture was allowed to stand at room temperature for 30 minutes, after which the mixture was centrifuged to give a sediment of the whole RNAs. Seventy % ethanol was added to the sediment, and the mixture was again centrifuged to give a sediment, which was then dried and dissolved in water. mRNA was isolated from the whole RNAs as followings. In view of the fact that a poly A chain is attached to the 3′ terminus of mRNA, a polynucleotide having a poly T structure which was immobilized on the surface of latex beads was used to trap the mRNA, and then the mRNA was washed and eluted with spine column (Oligotex-dT30<Super>mRNA Purification Kit, Takara). Reverse transcription of the mRNA was conducted with a reverse transcriptase (Super Script II Reverse Transcriptase; catalogue No. 18064-014, GibcoBRL) using fluorescence-labeled nucleotides to give cDNAs that were introduced with Cy3-dUTP or Cy5-dUTP during the reverse transcription.
The labeled cDNAs were dissolved in TE buffer (10mM Tris-HCl/1 mM EDTA, pH8.0), and the solution was dropped on the DNA chip containing the whole genes of yeast (DNA Chip Research Inc. Japan) so that the cDNAs were hybridized on the DNA chip at 65° C. for over 12 hours. The fluoresces intensity of the DNA chip was read with a scanner, and the ratio relative to the fluorescence intensity resulting from the absence of chemical substance was estimated as the following, which is shown in Tables 1 to 9: […]

## CCCCC[C@H](O)CC(=O)CCc1ccc(O)c(OC)c1 [(13), gingerol]
Yeast gene YAL007C
  The level of expressed mRNA in the presence of chemical substance/The level of expressed mRNA in the absence of chemical substance: 2.0
Yeast gene YBL005W-A
  The level of expressed mRNA in the presence of chemical substance/The level of expressed mRNA in the absence of chemical substance: 2.9
Yeast gene YBL041W
  The level of expressed mRNA in the presence of chemical substance/The level of expressed mRNA in the absence of chemical substance: 2.6
Yeast gene YBL043W
  The level of expressed mRNA in the presence of chemical substance/The level of expressed mRNA in the absence of chemical substance: 1.8
Yeast gene YBR109C
  The level of expressed mRNA in the presence of chemical substance/The level of expressed mRNA in the absence of chemical substance: 2.0
Yeast gene YBR201W
  The level of expressed mRNA in the presence of chemical substance/The level of expressed mRNA in the absence of chemical substance: 1.9
Yeast gene YCL020W
  The level of expressed mRNA in the presence of chemical substance/The level of expressed mRNA in the absence of chemical substance: 3.0
Yeast gene YCL027W
  The level of expressed mRNA in the presence of chemical substance/The level of expressed mRNA in the absence of chemical substance: 1.1
Yeast gene YCR004C
  The level of expressed mRNA in the presence of chemical substance/The level of expressed mRNA in the absence of chemical substance: 1.3
Yeast gene YCR071C
  The level of expressed mRNA in the presence of chemical substance/The level of expressed mRNA in the absence of chemical substance: 1.3
Yeast gene YCR088W
  The level of expressed mRNA in the presence of chemical substance/The level of expressed mRNA in the absence of chemical substance: 1.9
Yeast gene YDL008W
  The level of expressed mRNA in the presence of chemical substance/The level of expressed mRNA in the absence of chemical substance: 2.0
Yeast gene YDL097C
  The level of expressed mRNA in the presence of chemical substance/The level of expressed mRNA in the absence of chemical substance: 4.0
Yeast gene YDL126C
  The level of expressed mRNA in the presence of chemical substance/The level of expressed mRNA in the absence of chemical substance: 4.3
Yeast gene YDL212W
  The level of expressed mRNA in the presence of chemical substance/The level of expressed mRNA in the absence of chemical substance: 0.5
Yeast gene YDL238C
  The level of expressed mRNA in the presence of chemical substance/The level of expressed mRNA in the absence of chemical substance: 2.0
Yeast gene YDR055W
  The level of expressed mRNA in the presence of chemical substance/The level of expressed mRNA in the absence of chemical substance: 3.1
Yeast gene YDR084C
  The level of expressed mRNA in the presence of chemical substance/The level of expressed mRNA in the absence of chemical substance: 1.0
Yeast gene YDR085C
  The level of expressed mRNA in the presence of chemical substance/The level of expressed mRNA in the absence of chemical substance: 1.1
Yeast gene YDR104C
  The level of expressed mRNA in the presence of chemical substance/The level of expressed mRNA in the absence of chemical substance: 1.6
Yeast gene YDR115W
  The level of expressed mRNA in the presence of chemical substance/The level of expressed mRNA in the absence of chemical substance: 1.1
Yeast gene YDR315C
  The level of expressed mRNA in the presence of chemical substance/The level of expressed mRNA in the absence of chemical substance: 1.6
Yeast gene YDR358W
  The level of expressed mRNA in the presence of chemical substance/The level of expressed mRNA in the absence of chemical substance: 3.2
Yeast gene YDR388W
  The level of expressed mRNA in the presence of chemical substance/The level of expressed mRNA in the absence of chemical substance: 1.7
Yeast gene YDR481C
  The level of expressed mRNA in the presence of chemical substance/The level of expressed mRNA in the absence of chemical substance: 1.5
Yeast gene YDR518W
  The level of expressed mRNA in the presence of chemical substance/The level of expressed mRNA in the absence of chemical substance: 1.8
Yeast gene YEL042W
  The level of expressed mRNA in the presence of chemical substance/The level of expressed mRNA in the absence of chemical substance: 0.4
Yeast gene YEL066W
  The level of expressed mRNA in the presence of chemical substance/The level of expressed mRNA in the absence of chemical substance: 1.6
Yeast gene YER012W
  The level of expressed mRNA in the presence of chemical substance/The level of expressed mRNA in the absence of chemical substance: 2.9
Yeast gene YER130C
  The level of expressed mRNA in the presence of chemical substance/The level of expressed mRNA in the absence of chemical substance: 1.6
Yeast gene YER136W
  The level of expressed mRNA in the presence of chemical substance/The level of expressed mRNA in the absence of chemical substance: 1.3
Yeast gene YFL022C
  The level of expressed mRNA in the presence of chemical substance/The level of expressed mRNA in the absence of chemical substance: 0.6
Yeast gene YFL043C
  The level of expressed mRNA in the presence of chemical substance/The level of expressed mRNA in the absence of chemical substance: 1.5
Yeast gene YGL158W
  The level of expressed mRNA in the presence of chemical substance/The level of expressed mRNA in the absence of chemical substance: 1.0
Yeast gene YGL229C
  The level of expressed mRNA in the presence of chemical substance/The level of expressed mRNA in the absence of chemical substance: 1.7
Yeast gene YGR136W
  The level of expressed mRNA in the presence of chemical substance/The level of expressed mRNA in the absence of chemical substance: 1.7
Yeast gene YGR189C
  The level of expressed mRNA in the presence of chemical substance/The level of expressed mRNA in the absence of chemical substance: 1.2
Yeast gene YGR257C
  The level of expressed mRNA in the presence of chemical substance/The level of expressed mRNA in the absence of chemical substance: 2.0
Yeast gene YHR004C
  The level of expressed mRNA in the presence of chemical substance/The level of expressed mRNA in the absence of chemical substance: 1.1
Yeast gene YHR071W
  The level of expressed mRNA in the presence of chemical substance/The level of expressed mRNA in the absence of chemical substance: 2.3
Yeast gene YHR142W
  The level of expressed mRNA in the presence of chemical substance/The level of expressed mRNA in the absence of chemical substance: 1.2
Yeast gene YIL123W
  The level of expressed mRNA in the presence of chemical substance/The level of expressed mRNA in the absence of chemical substance: 0.4
Yeast gene YJL073W
  The level of expressed mRNA in the presence of chemical substance/The level of expressed mRNA in the absence of chemical substance: 1.6
Yeast gene YJL089W
  The level of expressed mRNA in the presence of chemical substance/The level of expressed mRNA in the absence of chemical substance: 1.8
Yeast gene YJR099W
  The level of expressed mRNA in the presence of chemical substance/The level of expressed mRNA in the absence of chemical substance: 1.5
Yeast gene YJR122W
  The level of expressed mRNA in the presence of chemical substance/The level of expressed mRNA in the absence of chemical substance: 1.3
Yeast gene YJR125C
  The level of expressed mRNA in the presence of chemical substance/The level of expressed mRNA in the absence of chemical substance: 1.5
Yeast gene YKL008C
  The level of expressed mRNA in the presence of chemical substance/The level of expressed mRNA in the absence of chemical substance: 1.7
Yeast gene YKL013C
  The level of expressed mRNA in the presence of chemical substance/The level of expressed mRNA in the absence of chemical substance: 1.3
Yeast gene YKL039W
  The level of expressed mRNA in the presence of chemical substance/The level of expressed mRNA in the absence of chemical substance: 1.9

From US8192962B2, “Processes for detecting toxic substances” (Daikin Industries, Ltd., priority 2001, dated 2012)
